Measured values taken from patent publication US11708367B2, “Compounds for the treatment of kinase-dependent disorders” (Exelixis, Inc., priority 2018, dated 2023).

Key:
Assay type in all cases: biochemical
Human Axl = Human Axl (Homo sapiens (Human), UniProt P30530, Q764R); experiment: Human AXL kinase assay (33P radiometric, KinaseProfiler); conditions: 10 μM ATP
Protocol: (§1) Kinase activity and compound inhibition were investigated using the ^33P-Phosphoryl transfer radiometric kinase assay, performed using the KinaseProfiler™ service of Eurofins Pharma Discovery Services UK Limited. Dose-response experiments were performed using nine compound concentrations in a 96-well microtiter plate. For each assay, all compounds were prepared to a 50× final assay concentration (50 μM) in 100% DMSO, then diluted in a half-log series, with the final top concentration at 1 μM. This working stock of the compound was added to the assay well as the first component in the reaction, followed by the remaining components as detailed in the following assay protocols below. The positive control wells (100% kinase activity) contain all components of the reaction including 2% DMSO (control for solvent effects), except the compound of interest. Blank wells contain all components of the reaction, with the reference inhibitor, staurosporine. This reference compound was used to abolish kinase activity and generated the 0% kinase activity base-line. IC50 values were calculated by nonlinear regression analysis using the sigmoidal dose-response (variable slope) curve fit on XLFit version 5.3 (ID Business Solutions).
Human Axl (residues H473-A894 with Q764R, 161 nM) was incubated with 8 mM MOPS pH 7.0, 0.2 mM EDTA, 250 μM KKSRGDYMTMQIG (SEQ ID NO. 43), 10 mM magnesium acetate and 10 μM [γ-33P-ATP]. The reaction was initiated by the addition of the Mg/ATP mix. After incubation for 40 minutes at room temperature, the reaction was stopped by the addition of phosphoric acid to a concentration of 0.5%. A reaction aliquot of 10 μL was then spotted onto a P30 filtermat and washed four times for 4 minutes in 0.425% phosphoric acid and once in methanol prior to drying and scintillation counting. Incorporated ^33P was measured using the Wallac Microbeta scintillation counter (Perkin Elmer).

Mer = Mer (Homo sapiens (Human), UniProt Q12866); experiment: Human Mer kinase assay (33P radiometric, KinaseProfiler); conditions: 10 μM ATP
Protocol: as §1
Human Mer (residues R557-E882 with H628Q and R794A, 0.7 nM) was incubated with 8 mM MOPS pH 7.0, 0.2 mM EDTA, 30 mM NaCl, 250 μM GGMEDIYFEFMGGKKK (SEQ ID NO. 44), 10 mM magnesium acetate, and 10 μM [γ-33P-ATP]. The reaction was initiated by the addition of the Mg/ATP mix. After incubation for 40 minutes at room temperature, the reaction was stopped by the addition of phosphoric acid to a concentration of 0.5%. A reaction aliquot of 10 μL was then spotted onto a P30 filtermat and washed four times for 4 minutes in 0.425% phosphoric acid and once in methanol prior to drying and scintillation counting. Incorporated 33P was measured using the Wallac Microbeta scintillation counter (Perkin Elmer).

Met = Met (Homo sapiens (Human), UniProt P08581); experiment: Human Met kinase assay (33P radiometric, KinaseProfiler); conditions: 10 μM ATP, read-out: c-Met IC50
Protocol: as §1
Human Met (residues R974-S1390 with A1209G and V1290L, 3.4 nM) was incubated with 8 mM MOPS pH 7.0, 0.2 mM EDTA, 250 µM KKKGQEEEYVFIE (SEQ ID NO. 45), 1 mM sodium orthovanadate, 5 mM […], 10 mM magnesium acetate, and 10 μM [γ-33P-ATP]. The reaction was initiated by the addition of the Mg/ATP mix. After incubation for 40 minutes at room temperature, the reaction was stopped by the addition of phosphoric acid to a concentration of 0.5%. A reaction aliquot of 10 μL was then spotted onto a P30 filtermat and washed four times for 4 minutes in 0.425% phosphoric acid and once in methanol prior to drying and scintillation counting. Incorporated 33P was measured using the Wallac Microbeta scintillation counter (Perkin Elmer).

Sequence of Human Axl (P30530 473-894 Q764R): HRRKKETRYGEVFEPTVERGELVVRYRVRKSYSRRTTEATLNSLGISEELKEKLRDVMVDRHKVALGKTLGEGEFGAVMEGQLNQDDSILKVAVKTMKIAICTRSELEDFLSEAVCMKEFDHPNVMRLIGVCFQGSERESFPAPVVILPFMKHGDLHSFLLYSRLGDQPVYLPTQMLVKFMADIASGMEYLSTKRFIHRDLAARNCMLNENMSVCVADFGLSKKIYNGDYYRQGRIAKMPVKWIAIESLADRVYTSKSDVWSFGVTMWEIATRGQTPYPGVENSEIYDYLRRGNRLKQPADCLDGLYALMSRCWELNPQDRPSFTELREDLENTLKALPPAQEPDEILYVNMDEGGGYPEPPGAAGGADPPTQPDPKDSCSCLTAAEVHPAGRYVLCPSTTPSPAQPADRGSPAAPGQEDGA
Sequence of Mer (Q12866 557-882): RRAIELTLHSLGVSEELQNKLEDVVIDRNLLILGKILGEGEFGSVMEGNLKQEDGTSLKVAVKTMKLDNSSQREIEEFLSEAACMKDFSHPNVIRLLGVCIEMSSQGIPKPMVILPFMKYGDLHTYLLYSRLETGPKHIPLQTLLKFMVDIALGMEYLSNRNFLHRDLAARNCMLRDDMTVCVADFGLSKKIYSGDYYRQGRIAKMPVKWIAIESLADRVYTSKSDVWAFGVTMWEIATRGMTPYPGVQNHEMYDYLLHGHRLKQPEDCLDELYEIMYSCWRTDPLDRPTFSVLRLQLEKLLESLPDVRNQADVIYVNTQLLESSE

IC50 (Human Axl) [nM] | IC50 (Mer) [nM] | IC50 (Met) [nM] | Structure (SMILES)
100 to 1000 | 10 to 100 | 100 to 1000 | COc1cc2ncnc(Oc3ccc(NC(=O)C4(C(=O)Nc5ccc(F)cc5)CC4)cc3)c2nc1C#N [Compound 57, 1-N-[4-(6-cyano-7-methoxypyrido[3,2-d]pyrimidin-4-yl)oxyphenyl]-1-N′-(4-fluorophenyl)cyclopropane-1,1-dicarboxamide]
100 to 1000 | 100 to 1000 | 100 to 1000 | O=C(Nc1ccc(F)cc1)C1(C(=O)Nc2ccc(Oc3ncnc4cc5c(nc34)CCCC5)cc2)CC1 [Compound 52, 1-N′-(4-fluorophenyl)-1-N-[4-(6,7,8,9-tetrahydro-pyrimido[5,4-b]quinolin-4-yloxy)phenyl]cyclo-propane-1,1-dicarboxamide]
100 to 1000 | 100 to 1000 | 100 to 1000 | O=C(Nc1ccc(F)cc1)C1(C(=O)Nc2ccc(Oc3ncnc4cc(Br)cnc34)cc2)CC1 [Compound 13, 1-N-[4-(7-bromopyrido[3,2-d]pyrimidin-4-yl)oxyphenyl]-1-N′-(4-fluorophenyl)cyclo-propane-1,1-dicarboxamide]
> 1000 | > 1000 | 100 to 1000 | O=C(Nc1ccc(F)cc1)C1(C(=O)Nc2ccc(Oc3ncnc4cccnc34)cc2)CC1 [Compound 7, 1-N′-(4-fluorophenyl)-1-N-(4-pyrido[3,2-d]pyrimidin-4-yloxyphenyl)cyclopropane-1,1-dicarboxamide]
100 to 1000 | 100 to 1000 | 100 to 1000 | O=C(Nc1ccc(F)cc1)C1(C(=O)Nc2ccc(Oc3ncnc4cnccc34)cc2)CC1 [Compound 85, 1-N′-(4-fluorophenyl)-1-N-(4-pyrido[3,4-d]pyrimidin-4-yloxyphenyl)cyclopropane-1,1-dicarboxamide]
> 1000 | 100 to 1000 | 100 to 1000 | O=C(Nc1ccc(F)cc1)C1(C(=O)Nc2ccc(Oc3ncnc4cc(Cl)cnc34)cc2)CC1 [Compound 12, 1-N-[4-(7-chloropyrido[3,2-d]pyrimidin-4-yl)oxyphenyl]-1-N′-(4-fluorophenyl)cyclo-propane-1,1-dicarboxamide]
100 to 1000 | 100 to 1000 | 100 to 1000 | O=C(Nc1ccc(F)cc1)C1(C(=O)Nc2ccc(Oc3ncnc4ccncc34)cc2)CC1 [Compound 95, 1-N′-(4-fluorophenyl)-1-N-(4-pyrido[4,3-d]pyrimidin-4-yloxyphenyl)cyclo-propane-1,1-dicarboxamide]
100 to 1000 | 100 to 1000 | > 1000 | O=C(Nc1ccc(F)cc1)C1(C(=O)Nc2ccc(Oc3ncnc4cnc(Cl)cc34)cc2)CC1 [Compound 88, 1-N-[4-(6-chloropyrido[3,4-d]pyrimidin-4-yl)oxy-phenyl]-1-N′-(4-fluoro-phenyl)cyclopropane-1,1-dicarboxamide]
> 1000 | 100 to 1000 | > 1000 | N#Cc1ccc2ncnc(Oc3ccc(NC(=O)C4(C(=O)Nc5ccc(F)cc5)CC4)cc3)c2c1 [Compound 106, 1-N-[4-(6-cyanoquinazolin-4-yl)oxyphenyl]-1-N′-(4-fluorophenyl)cyclopropane-1,1-dicarboxamide]
